For 23 compounds, IC50 results are on record in US20250382305A1 (PTC THERAPEUTICS, INC., priority 2022, published 2025).

What is called IC50 is the point on the concentration scale where inhibition reaches its midpoint.

The subject of assay [1] is Total ATXN3 (tATXN3) protein. Briefly: Endogenous Total ATXN3 (tATXN3) Protein Assay (MSD immunoassay of cell lysates). The assay is classed as cell-based. The settings on record: average IC50, total ATXN3 protein in cell lysate after 48 h with compound (Table 1). The method in brief:
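By electrochemiluminescent MSD sandwich immunoassay (mouse monoclonal capture, rabbit monoclonal and SULFO-TAG anti-rabbit detection), endogenous ATXN3 was quantified in lysates of cells treated 48 h at 37° C at 10,000 cells/well. Treatment used a 7-point 3.16-fold duplicate dilution series, with average IC50 grouped into star categories.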

Another assay has as its system ATXN3 pre-mRNA. Nature of the assay: RT-qPCR Assay to Quantify Exon 4 Skipping in ATXN3 pre-mRNA in Cells. The settings on record: percent exon 4 skipping in ATXN3 pre-mRNA, RT-qPCR of cell lysates; average IC50. The class given is cell-based. The method in brief: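 IC50 derives from a dose-response fit of percent exon 4 skipping, quantified by RT-qPCR on crude lysates. Compounds tested as 7-point 3.16-fold dilutions in duplicate; cells (10,000/well) were exposed for 24 h at 37 °C before lysis.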
In general terms: Quantitative PCR measures a nucleic acid by following its amplification.

For the compound `Cc1c([C@@H]2CC=CC[C@H]2N)sc2c(NCc3ccncc3)nc(Cl)nc12` [Compound 436, 6-((1R,6R)-6-aminocyclohex-3-en-1-yl)-2-chloro-7-methyl-N-(pyridin-4-ylmethyl)thieno[3,2-d]pyrimidin-4-amine], the concentration for half-maximal inhibition (IC50) is greater than 1 µM in assay [1] and 0.3 to 1 µM in the assay on ATXN3 pre-mRNA.

Regarding `Cc1c([C@@]2(F)CCCC[C@@H]2N)sc2c(NCc3ccco3)cc(Cl)nc12` [Compound 41, 2-((1R,2S)-2-amino-1-fluorocyclohexyl)-5-chloro-N-(furan-2-ylmethyl)-3-methylthieno[3,2-b]pyridin-7-amine], the IC50 (in assay [1]; with ATXN3 pre-mRNA) was 0.03 to 0.3 µM throughout.

As for `N[C@@H]1CCCO[C@H]1c1sc2c(NCc3ccco3)nc(Cl)nc2c1Br` (single isomer, unassigned) [Compound 42, 6-((2R,3R)-3-aminotetrahydro-2H-pyran-2-yl)-7-bromo-2-chloro-N-(furan-2-ylmethyl)thieno[3,2-d]pyrimidin-4-amine or 6-((2S,3S)-3-aminotetrahydro-2H-pyran-2-yl)-7-bromo-2-chloro-N-(furan-2-ylmethyl)thieno[3,2-d]pyrimidin-4-amine], the concentration for half-maximal inhibition (IC50) (in assay [1]; with ATXN3 pre-mRNA) was 0.3 to 1 µM throughout.

For the compound `Cc1c([C@H]2CCCCCC[C@H]2N)sc2c(NCc3cccs3)cc(Cl)nc12` [Compound 93, 2-((1S,2R)-2-aminocyclooctyl)-5-chloro-3-methyl-N-(thiophen-2-ylmethyl)thieno[3,2-b]pyridin-7-amine], the IC50 (in assay [1]; in the assay with ATXN3 pre-mRNA) was greater than 1 µM each time.

For `N[C@@H]1CC=CC[C@H]1c1c(I)c2nc(Cl)cc(NCc3cccs3)c2n1C(F)F` [Compound 427, 2-((1R,6R)-6-aminocyclohex-3-en-1-yl)-5-chloro-1-(difluoromethyl)-3-iodo-N-(thiophen-2-ylmethyl)-1H-pyrrolo[3,2-b]pyridin-7-amine], the half-maximal inhibitory concentration (IC50) is 0.03 to 0.3 µM in assay [1] and no more than 0.03 µM in the assay with ATXN3 pre-mRNA.

Regarding `N[C@@H]1CC=CC[C@H]1c1sc2c(NCc3cccs3)cc(Cl)nc2c1I.N[C@H]1CC=CC[C@@H]1c1sc2c(NCc3cccs3)cc(Cl)nc2c1I` (mixture of isomers) [Compound 365, 2-((1R,6R)-6-aminocyclohex-3-en-1-yl)-5-chloro-3-iodo-N-(thiophen-2-ylmethyl)thieno[3,2-b]pyridin-7-amine and 2-((1S,6S)-6-aminocyclohex-3-en-1-yl)-5-chloro-3-iodo-N-(thiophen-2-ylmethyl)thieno[3,2-b]pyridin-7-amine], the IC50 (in assay [1]; with ATXN3 pre-mRNA) was 0.03 to 0.3 µM throughout.

As for `N[C@@H]1COCC[C@H]1c1sc2c(NCc3nccs3)cc(Cl)nc2c1Cl` [Compound 407, 2-((3S,4R)-3-aminotetrahydro-2H-pyran-4-yl)-3,5-dichloro-N-(thiazol-2-ylmethyl)thieno[3,2-b]pyridin-7-amine], the concentration for half-maximal inhibition (IC50) (in assay [1]; in the assay on ATXN3 pre-mRNA) was 0.03 to 0.3 µM in each case.

On to `Cc1c([C@H]2CC=CC[C@@H]2N)sc2c(NCc3ccco3)cc(C#N)nc12` [Compound 289, 2-((1S,6S)-6-aminocyclohex-3-en-1-yl)-7-((furan-2-ylmethyl)amino)-3-methylthieno[3,2-b]pyridine-5-carbonitrile], for which the IC50 (in assay [1]; in the assay with ATXN3 pre-mRNA) was 0.03 to 0.3 µM throughout.

For “6-((2S,3S)-3-aminotetrahydro-2H-pyran-2-yl)-N-benzyl-2,7-dichloro-5-(difluoromethyl)-5H-pyrrolo[3,2-d]pyrimidin-4-amine and 6-((2R,3R)-3-aminotetrahydro-2H-pyran-2-yl)-N-benzyl-2,7-dichloro-5-(difluoromethyl)-5H-pyrrolo[3,2-d]pyrimidin-4-amine [Compound 392]”, the IC50 in assay [1] was in the range of 0.3 to 1 µM; with ATXN3 pre-mRNA, 0.03 to 0.3 µM.

Consider `N[C@H]1CC=CC[C@@H]1c1sc2c(NCc3cccs3)cc(Cl)nc2c1C#CCCCCCO` [Compound 320, 7-(2-((1S,6S)-6-aminocyclohex-3-en-1-yl)-5-chloro-7-((thiophen-2-ylmethyl)amino)thieno[3,2-b]pyridin-3-yl)hept-6-yn-1-ol], for which the IC50 (in assay [1]; with ATXN3 pre-mRNA) was 0.03 to 0.3 µM in each case.

Consider `Cc1c([C@H]2COCC[C@@H]2N)sc2c(NCc3ccccc3)cc(Cl)nc12` [Compound 321, 2-((3R,4S)-4-aminotetrahydro-2H-pyran-3-yl)-N-benzyl-5-chloro-3-methylthieno[3,2-b]pyridin-7-amine], for which the IC50 (in assay [1]; in the assay with ATXN3 pre-mRNA) was 0.03 to 0.3 µM throughout.

Regarding “6-((3R,4S)-3-aminotetrahydro-2H-pyran-4-yl)-2-chloro-N-(furan-2-ylmethyl)-7-vinylthieno[3,2-d]pyrimidin-4-amine and 6-((3S,4R)-3-aminotetrahydro-2H-pyran-4-yl)-2-chloro-N-(furan-2-ylmethyl)-7-vinylthieno[3,2-d]pyrimidin-4-amine [Compound 390]”, the IC50 was 0.3 to 1 µM in assay [1] and 0.03 to 0.3 µM in the assay with ATXN3 pre-mRNA.

Consider `C[C@@H]1C=CC[C@H](c2sc3c(NCc4cccs4)cc(Cl)nc3c2Br)[C@H]1N.C[C@H]1C=CC[C@@H](c2sc3c(NCc4cccs4)cc(Cl)nc3c2Br)[C@@H]1N` (mixture of isomers) [Compound 294, 2-((1R,5S,6R)-6-amino-5-methylcyclohex-3-en-1-yl)-3-bromo-5-chloro-N-(thiophen-2-ylmethyl)thieno[3,2-b]pyridin-7-amine and 2-((1S,5R,6S)-6-amino-5-methylcyclohex-3-en-1-yl)-3-bromo-5-chloro-N-(thiophen-2-ylmethyl)thieno[3,2-b]pyridin-7-amine], for which the half-maximal inhibitory concentration (IC50) (in assay [1]; in the assay with ATXN3 pre-mRNA) was 0.03 to 0.3 µM in each case.

Consider `N[C@H]1CCCC[C@@H]1c1sc2c(NCc3ccccc3)cc(Cl)nc2c1Cl` [Compound 237, 2-((1S,2S)-2-aminocyclohexyl)-N-benzyl-3,5-dichlorothieno[3,2-b]pyridin-7-amine], for which the half-inhibitory concentration (IC50) (in assay [1]; with ATXN3 pre-mRNA) was no more than 0.03 µM in each case.

For `CC#Cc1c(C2[C@@H](N)CCCC2(F)F)sc2c(NCc3cccs3)cc(Cl)nc12.CC#Cc1c(C2[C@H](N)CCCC2(F)F)sc2c(NCc3cccs3)cc(Cl)nc12` (mixture of isomers) [Compound 208, 2-((6R)-6-amino-2,2-difluorocyclohexyl)-5-chloro-3-(prop-1-yn-1-yl)-N-(thiophen-2-ylmethyl)thieno[3,2-b]pyridin-7-amine and 2-((6S)-6-amino-2,2-difluorocyclohexyl)-5-chloro-3-(prop-1-yn-1-yl)-N-(thiophen-2-ylmethyl)thieno[3,2-b]pyridin-7-amine], the 50% inhibitory concentration (IC50) (in assay [1]; in the assay with ATXN3 pre-mRNA) was no more than 0.03 µM each time.

With `C#Cc1c([C@H]2CCCC[C@@H]2N)sc2c(NCc3ccco3)cc(Cl)nc12` [Compound 357, 2-((1S,2S)-2-aminocyclohexyl)-5-chloro-3-ethynyl-N-(furan-2-ylmethyl)thieno[3,2-b]pyridin-7-amine], the IC50 (in assay [1]; with ATXN3 pre-mRNA) was 0.03 to 0.3 µM each time.

In the case of `C/C=C\CNc1cc(Cl)nc2c(Cl)c([C@H]3CCCC[C@@H]3N)sc12` [Compound 442, 2-((1S,2S)-2-aminocyclohexyl)-N-((Z)-but-2-en-1-yl)-3,5-dichlorothieno[3,2-b]pyridin-7-amine], the half-inhibitory concentration (IC50) (in assay [1]; with ATXN3 pre-mRNA) was 0.03 to 0.3 µM each time.

For `N[C@@H]1CCCC[C@H]1c1c(Cl)c2nc(Cl)nc(NCc3ccccc3)c2n1C(F)F.N[C@H]1CCCC[C@@H]1c1c(Cl)c2nc(Cl)nc(NCc3ccccc3)c2n1C(F)F` (mixture of isomers) [Compound 418, 6-((1S,2S)-2-aminocyclohexyl)-N-benzyl-2,7-dichloro-5-(difluoromethyl)-5H-pyrrolo[3,2-d]pyrimidin-4-amine and 6-((1R,2R)-2-aminocyclohexyl)-N-benzyl-2,7-dichloro-5-(difluoromethyl)-5H-pyrrolo[3,2-d]pyrimidin-4-amine], the concentration for half-maximal inhibition (IC50) (in assay [1]; in the assay with ATXN3 pre-mRNA) was 0.03 to 0.3 µM each time.

On to `N[C@H]1CC=CC[C@@H]1c1sc2c(NCc3ccccc3)nc(Cl)nc2c1Cl` [Compound 263, 6-((1S,6S)-6-aminocyclohex-3-en-1-yl)-N-benzyl-2,7-dichlorothieno[3,2-d]pyrimidin-4-amine], for which the half-inhibitory concentration (IC50) (in assay [1]; with ATXN3 pre-mRNA) was 0.03 to 0.3 µM throughout.

With `Cc1c([C@H]2OCCC[C@@H]2N)sc2c(NCc3ccccc3F)cc(Cl)nc12` [Compound 33, 2-((2S,3S)-3-aminotetrahydro-2H-pyran-2-yl)-5-chloro-N-(2-fluorobenzyl)-3-methylthieno[3,2-b]pyridin-7-amine], the IC50 (in assay [1]; in the assay with ATXN3 pre-mRNA) was 0.03 to 0.3 µM throughout.

Consider “(1R,5S,6R)-6-amino-5-(3-bromo-5-chloro-7-((thiophen-2-ylmethyl)amino)thieno[3,2-b]pyridin-2-yl)cyclohex-2-en-1-ol and (1S,5R,6S)-6-amino-5-(3-bromo-5-chloro-7-((thiophen-2-ylmethyl)amino)thieno[3,2-b]pyridin-2-yl)cyclohex-2-en-1-ol [Compound 153]”, for which the concentration for half-maximal inhibition (IC50) (in assay [1]; with ATXN3 pre-mRNA) was no more than 0.03 µM throughout.

Take `N[C@H]1CCCN(c2ccccc2)[C@H]1c1sc2c(NCc3cccs3)cc(Cl)nc2c1Br` (racemic) [Compound 125, 2-((2R,3S)-3-amino-1-phenylpiperidin-2-yl)-3-bromo-5-chloro-N-(thiophen-2-ylmethyl)thieno[3,2-b]pyridin-7-amine and 2-((2S,3R)-3-amino-1-phenylpiperidin-2-yl)-3-bromo-5-chloro-N-(thiophen-2-ylmethyl)thieno[3,2-b]pyridin-7-amine]: the IC50 (in assay [1]; in the assay on ATXN3 pre-mRNA) was greater than 1 µM throughout.

With `N[C@H]1CCCC(F)(F)[C@@H]1c1sc2c(NCc3ccco3)nc(Cl)nc2c1Br` [Compound 201, 6-((1R,6S)-6-amino-2,2-difluorocyclohexyl)-7-bromo-2-chloro-N-(furan-2-ylmethyl)thieno[3,2-d]pyrimidin-4-amine], the 50% inhibitory concentration (IC50) (in assay [1]; in the assay on ATXN3 pre-mRNA) was no more than 0.03 µM throughout.
